What all share (assay): Mass spectroscopy proteomics, semi-quantitative binding affinity of serum proteins (plaqueproteome, Table 2)
Common to all, as to conditions: higher number = stronger affinity

Test [1] concerns High Density cholesterol (Chl Large) plaque particles. Details: species or system human. Summed up:
(§1)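 Proteins bound to flow-sorted cholesterol plaque particles (large/high-density or small/low-density gates) were identified by LC-MS/MS after trypsin digestion. Particles were formed from 50% atherosclerotic serum or plasma with 30 μg cholesterol aggregates, 1 h, 37 °C. Sequest human database search; Scaffold validation.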

The subject of test [2] is Low density cholesterol (Chl small) plaque particles. Details: species or system human. The method in brief:
as §1

Test [3] deals with T1, Abeta-42 plaque particles (Homo sapiens, UniProt P05067).
T1 construct: Abeta 1-42
Summed up:
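AD patient serum or plasma (50% in PBS) was incubated with Abeta-42 aggregates (30 μg) for 1 h at 37 °C, then stained with Thioflavin S for 30 min. Labeled particles were FACS-sorted, trypsin/Lys-C digested overnight and analyzed by MS/MS. Sequest searched human UniProt; Scaffold/Protein Prophet validated the identifications.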

Test [4] deals with T2, alpha-synuclein plaque particles (Homo sapiens, UniProt P37840).
T2 construct: 140 amino acids polypeptide
The method in brief:
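AD-subject plasma or serum (800 μL of 50%) mixed with 30 μg preformed alpha-synuclein aggregates for 1 h at 37 °C; Thioflavin S-positive particles isolated by flow sorting. After reduction, acrylamide alkylation and overnight tryptic digestion, serum proteins identified by MS/MS with Sequest and Scaffold.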

Another test deals with Tau plaque particles. Details: species or system human. Summed up:
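Serum or plasma proteins captured on Thioflavin S-labelled Tau plaque particles (Tau-74, Tau-275 oligomers preformed in PBS at 37° C for 2 h; 1 h co-incubation at 37° C) were isolated by FACS sorting, then tryptically digested and identified by MS/MS (Sequest, human UniProt, strict trypsin).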

For “Phosphatidylcholine-sterol acyltransferase”, in test [1], the “Semi-quantitative analysis of proteins binding to different plaque particles: Chl Large” value came to 1. For the same substance, the “Semi-quantitative analysis of proteins binding to different plaque particles: Chl small” value in test [2] was found to be 0. Further, the “Semi-quantitative analysis of proteins binding to different plaque particles: Abeta-42” value in test [3] amounted to 0. The “Semi-quantitative analysis of proteins binding to different plaque particles: Synuclein” value in test [4] was 1. The “Semi-quantitative analysis of proteins binding to different plaque particles: Tau” value with Tau plaque particles turned out to be 0.

Take Plasma kallikrein: in test [1], the “Semi-quantitative analysis of proteins binding to different plaque particles: Chl Large” value was 1. In addition, the “Semi-quantitative analysis of proteins binding to different plaque particles: Chl small” value in test [2] was 3. The “Semi-quantitative analysis of proteins binding to different plaque particles: Abeta-42” value in test [3] came to 0. The “Semi-quantitative analysis of proteins binding to different plaque particles: Synuclein” value in test [4] came to 0. For the same substance, the “Semi-quantitative analysis of proteins binding to different plaque particles: Tau” value with Tau plaque particles worked out at 3.

Consider Plasma protease C1 inhibitor, for which, in test [1], the “Semi-quantitative analysis of proteins binding to different plaque particles: Chl Large” value is listed as 7. In addition, the “Semi-quantitative analysis of proteins binding to different plaque particles: Chl small” value in test [2] came out at 7. Besides, the “Semi-quantitative analysis of proteins binding to different plaque particles: Abeta-42” value in test [3] is listed as 4. The “Semi-quantitative analysis of proteins binding to different plaque particles: Synuclein” value in test [4] was determined as 9. In the test with Tau plaque particles, the “Semi-quantitative analysis of proteins binding to different plaque particles: Tau” value turned out to be 3.

For the substance Plasminogen, in test [1], the “Semi-quantitative analysis of proteins binding to different plaque particles: Chl Large” value was 11. In test [2], the “Semi-quantitative analysis of proteins binding to different plaque particles: Chl small” value came to 9. Further, in test [3], the “Semi-quantitative analysis of proteins binding to different plaque particles: Abeta-42” value amounted to 7. In test [4], the “Semi-quantitative analysis of proteins binding to different plaque particles: Synuclein” value was determined as 7. Also, the “Semi-quantitative analysis of proteins binding to different plaque particles: Tau” value in the test with Tau plaque particles was determined as 13.

Consider Platelet factor 4, for which, in test [1], the “Semi-quantitative analysis of proteins binding to different plaque particles: Chl Large” value turned out to be 1. In test [2], the “Semi-quantitative analysis of proteins binding to different plaque particles: Chl small” value was found to be 0. Also, in test [3], the “Semi-quantitative analysis of proteins binding to different plaque particles: Abeta-42” value turned out to be 2. Moreover, the “Semi-quantitative analysis of proteins binding to different plaque particles: Synuclein” value in test [4] came to 1. Besides, in the test on Tau plaque particles, the “Semi-quantitative analysis of proteins binding to different plaque particles: Tau” value is given as 1.

Serotransferrin: the “Semi-quantitative analysis of proteins binding to different plaque particles: Chl Large” value in test [1] was 66. The “Semi-quantitative analysis of proteins binding to different plaque particles: Chl small” value in test [2] is reported as 73. Also, the “Semi-quantitative analysis of proteins binding to different plaque particles: Abeta-42” value in test [3] was 46. Also, the “Semi-quantitative analysis of proteins binding to different plaque particles: Synuclein” value in test [4] was 78. The “Semi-quantitative analysis of proteins binding to different plaque particles: Tau” value with Tau plaque particles worked out at 48.

For the substance Serum amyloid P-component, the “Semi-quantitative analysis of proteins binding to different plaque particles: Chl Large” value in test [1] worked out at 1. In test [2], the “Semi-quantitative analysis of proteins binding to different plaque particles: Chl small” value was 1. The “Semi-quantitative analysis of proteins binding to different plaque particles: Abeta-42” value in test [3] amounted to 5. In addition, the “Semi-quantitative analysis of proteins binding to different plaque particles: Synuclein” value in test [4] was found to be 0. Also, the “Semi-quantitative analysis of proteins binding to different plaque particles: Tau” value in the test on Tau plaque particles came to 2.

For Transthyretin, the “Semi-quantitative analysis of proteins binding to different plaque particles: Chl Large” value in test [1] is on record as 25. Further, the “Semi-quantitative analysis of proteins binding to different plaque particles: Chl small” value in test [2] came out at 21. For the same substance, in test [3], the “Semi-quantitative analysis of proteins binding to different plaque particles: Abeta-42” value amounted to 14. Also, in test [4], the “Semi-quantitative analysis of proteins binding to different plaque particles: Synuclein” value amounted to 23. Moreover, the “Semi-quantitative analysis of proteins binding to different plaque particles: Tau” value in the test with Tau plaque particles is reported as 13.

As to Tropomyosin alpha-3 chain, the “Semi-quantitative analysis of proteins binding to different plaque particles: Chl Large” value in test [1] amounted to 0. In test [2], the “Semi-quantitative analysis of proteins binding to different plaque particles: Chl small” value is reported as 0. For the same substance, in test [3], the “Semi-quantitative analysis of proteins binding to different plaque particles: Abeta-42” value came to 5. Further, in test [4], the “Semi-quantitative analysis of proteins binding to different plaque particles: Synuclein” value worked out at 0. The “Semi-quantitative analysis of proteins binding to different plaque particles: Tau” value with Tau plaque particles is 0.

For Tubulin beta-4B chain, the “Semi-quantitative analysis of proteins binding to different plaque particles: Chl Large” value in test [1] worked out at 0. The “Semi-quantitative analysis of proteins binding to different plaque particles: Chl small” value in test [2] was 0. In addition, the “Semi-quantitative analysis of proteins binding to different plaque particles: Abeta-42” value in test [3] came out at 0. Also, the “Semi-quantitative analysis of proteins binding to different plaque particles: Synuclein” value in test [4] stood at 0. Besides, the “Semi-quantitative analysis of proteins binding to different plaque particles: Tau” value in the test with Tau plaque particles turned out to be 5.

For the substance Vitamin K-dependent protein S, the “Semi-quantitative analysis of proteins binding to different plaque particles: Chl Large” value in test [1] worked out at 0. Further, the “Semi-quantitative analysis of proteins binding to different plaque particles: Chl small” value in test [2] was determined as 1. In test [3], the “Semi-quantitative analysis of proteins binding to different plaque particles: Abeta-42” value is reported as 0. Also, in test [4], the “Semi-quantitative analysis of proteins binding to different plaque particles: Synuclein” value was 0. Moreover, the “Semi-quantitative analysis of proteins binding to different plaque particles: Tau” value in the test with Tau plaque particles is listed as 0.

As to Vitronectin, in test [1], the “Semi-quantitative analysis of proteins binding to different plaque particles: Chl Large” value is 4. For the same substance, the “Semi-quantitative analysis of proteins binding to different plaque particles: Chl small” value in test [2] was determined as 2. The “Semi-quantitative analysis of proteins binding to different plaque particles: Abeta-42” value in test [3] was 4. The “Semi-quantitative analysis of proteins binding to different plaque particles: Synuclein” value in test [4] amounted to 4. In the test with Tau plaque particles, the “Semi-quantitative analysis of proteins binding to different plaque particles: Tau” value is 4.
